Test results as given in patent publication US20050090529A1, “3,5 Disubstituted indazole compounds with nitrogen-bearing 5-membered heterocycles, pharmaceutical compositions, and methods for mediating or inhibiting cell proliferation” (PFIZER INC, priority 2003, published 2005).
≈ marks a conversion by molar mass, not a printed value.

Legend:
CDK2/Cyclin A = target: T1, CDK2/Cyclin A (Homo sapiens, UniProt P24941); assay: Inhibition of CDK2/Cyclin A retinoblastoma kinase activity (apparent Ki); assay type: biochemical; conditions: read-out: CDK2 Ki
T1 construct: made in house; host or cells: CDK2: insect cells (baculovirus); cyclin A: E. coli
Procedure, shortened: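 Cyclin A complex (proteolyzed cyclin) purified by gel filtration; enzyme-initiated reactions ran 20 min at 30 °C, transferring radiolabelled phosphate from [32P]/[33P]ATP onto a protein substrate, stopped with EDTA and quantified by phosphorimager.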

[1] = Measurement of kinetic solubility; conditions: 100 mM sodium phosphate buffer, pH 6.5, aqueous buffer, kinetic from dmso stock
Procedure: Kinetic solubility was determined with a […] stock solution from the compound(s) of interest. […] Samples and standards were then centrifuged and an aliquot was removed for HPLC analysis. Samples and standards were analyzed by HPLC and a final concentration for the sample was determined based on a one-point calibration curve from the corresponding standard. Results were reported as μg's/mL.

Row | SMILES | Ki (CDK2/Cyclin A) | solubility [1]
1 | CCNCc1cncc(-c2ccc3[nH]nc(-c4ncc(C(=O)N5CCN(Cc6ccccn6)CC5)[nH]4)c3c2)c1C [Example 83, N-({4-methyl-5-[3-(5-{[4-(pyridin-2-ylmethyl)piperazin-1-yl]carbonyl}-1H-imidazol-2-yl)-1H-indazol-5-yl]pyridin-3-yl}methyl)ethanamine] | < 50 nM | > 120 µg/mL
2 | CCNCc1cncc(-c2ccc3[nH]nc(-c4ncc(C(=O)N5CCC(Cc6ncccn6)CC5)[nH]4)c3c2)c1C [Example 85, N-({4-methyl-5-[3-(5-{[4-(pyrimidin-2-ylmethyl)piperidin-1-yl]carbonyl}-1H-imidazol-2-yl)-1H-indazol-5-yl]pyridin-3-yl}methyl)ethanamine] | < 50 nM | > 120 µg/mL
3 | CCNCc1cncc(-c2ccc3[nH]nc(-c4nc(C(=O)O)c[nH]4)c3c2)c1C [Example 86, 2-(5-{5-[(ethylamino)methyl]-4-methylpyridin-3-yl}-1H-indazol-3-yl)-1H-imidazole-5-carboxylic acid] | 50 to 200 nM | > 120 µg/mL
4 | CCNCc1cncc(-c2ccc3[nH]nc(-c4cnco4)c3c2)c1C [Example 87, N-({4-methyl-5-[3-(1,3-oxazol-5-yl)-1H-indazol-5-yl]pyridin-3-yl}methyl)ethanamine] | 50 to 200 nM | > 120 µg/mL
5 | CCNCc1cncc(-c2ccc3[nH]nc(-c4cnc[nH]4)c3c2)c1C [Example 90, N-({5-[3-(1H-imidazol-5-yl)-1H-indazol-5-yl]-4-methylpyridin-3-yl}methyl)ethanamine] | < 50 nM | > 120 µg/mL
6 | c1c[nH]c(-c2n[nH]c3ccc(-c4cncc5[nH]ccc45)cc23)n1 [Example 94, 3-(1H-Imidazol-2-yl)-5-(1H-pyrrolo[2,3-c]pyridin-4-yl)-1H-indazole] | < 50 nM | 20 to 120 µg/mL (≈ 66.6 to 400 µM)
7 | c1ncc(-c2n[nH]c3ccc(-c4cncc5[nH]ccc45)cc23)[nH]1 [Example 95, 3-(3H-Imidazol-4-yl)-5-(1H-pyrrolo[2,3-c]pyridin-4-yl)-1H-indazole] | < 50 nM | 20 to 120 µg/mL (≈ 66.6 to 400 µM)
8 | CCNCc1cncc(-c2ccc3[nH]nc(-c4cnc(-c5ccncc5)[nH]4)c3c2)c1C [Example 96, Ethyl-{4-methyl-5-[3-(2-pyridin-4-yl-3H-imidazol-4-yl)-1H-indazol-5-yl]-pyridin-3-ylmethyl}-amine] | 50 to 200 nM | > 120 µg/mL
9 | CCNCc1cncc(-c2ccc3[nH]nc(C(N)=O)c3c2)c1C [Example 97, 5-(5-Ethylaminomethyl-4-methyl-pyridin-3-yl)-1H-indazole-3-carboxylic acid amide] | 50 to 200 nM | > 120 µg/mL
